Values of other authors as cited in publication PMC8198792, “Prediction of Anticancer Peptides with High Efficacy and Low Toxicity by Hybrid Model Based on 3D Structure of Peptides” (International Journal of Molecular Sciences, 2021).
Read-outs that look alike come from different tables or passages of the source.

Tested on: cancer cell lines
Parameters: method as in 6 sources, ref CancerPPD [45] and SATPdb ||| ref CancerPPD/SATPdb ||| ref CancerPPD, SATPdb, Swissprot (PDB) ||| ref CancerPPD/SATPdb/Swissprot(PDB) ||| ref CancerPPD / SATPdb ||| ...
Settings: cited from earlier work
Text: Supplement ijms-22-05630-s001.zip/ACPs(seguence).xlsx, sheet "D1" | column: Activity || Supplement ijms-22-05630-s001.zip/ACPs(seguence).xlsx, sheet "D2" | column: Activity || Supplement ijms-22-05630-s001.zip/ACPs(seguence).xlsx, sheet "D3" | column: Activity || (+ 2 further places)

[1] = ACPs dataset D3 (sheet "D3"), label 1 = ACP, 0 = non-ACP, ref CancerPPD/SATPdb
[2] = ACPs dataset D4 (sheet "D4"), label 1 = ACP, 0 = non-ACP, ref CancerPPD / SATPdb
[3] = ACPs dataset D5, sheet "D5", label 1 = ACP, 0 = non-ACP, ref CancerPPD [45] and SATPdb
[4] = ACPs dataset D5 (sheet "D5"), label 1 = ACP (positive set), 0 = non-ACP (negative set), ref CancerPPD [45] and SATPdb
[5] = ACPs dataset sheet D2, 1 = ACP (CancerPPD/SATPdb ID), 0 = non-ACP (Swissprot/PDB ID), ref CancerPPD, SATPdb, Swissprot (PDB)
[6] = ACPs dataset D1, 1 = ACP (positive), 0 = non-ACP (negative), label taken from databases, ref CancerPPD [45] and SATPdb
[7] = ACPs dataset D4 (sheet "D4"), label 1 = ACP, experimentally validated ACPs, ref CancerPPD [45] and SATPdb
[8] = ACPs dataset D5 (sheet "D5"), label 1 = ACP (positive set), sequences with CancerPPD/SATPdb ID, ref CancerPPD, SATPdb
[9] = ACPs dataset D3 (supplement sheet "D3"), 1 = ACP, 0 = non-ACP, ref CancerPPD [45] and SATPdb
[10] = ACPs dataset D4 (sheet "D4"), label 1 = ACP (CancerPPD ID), 0 = non-ACP (non-anticancer AMP, SATPdb ID), ref CancerPPD [45] and SATPdb
[11] = ACPs dataset D1, label 1 = ACP, 0 = non-ACP (non-anticancer AMPs from SATPdb), ref CancerPPD/SATPdb
[12] = ACPs dataset D2 (supplement ACPs(seguence).xlsx, sheet D2), dataset label 1/0 (ACP / non-ACP), entries identified by Swissprot(PDB ID), ref CancerPPD/SATPdb/Swissprot(PDB)

| Substance | Activity [4] | Activity [5] | Activity [6] | Activity [7] | Activity [8] | Activity [10] | also measured |
| --- | --- | --- | --- | --- | --- | --- | --- |
| RLYRRLYRRLYRRLYRRLYRRLYRRLYRRLYRKKKKKKK [satpdb14208] | – | – | – | – | – | – | Activity [1]: 0; Activity [2]: 0; Activity [3]: 0 |
| MTEEMLYAALLSFGLIFVGWGLGVLLLKIQGAEKE [4I7Z X-ray 2.80,F,1-35] | 0 | 0 | – | – | – | – | – |
| GFKDLLKGAAKALVKTVLF [compound 4388] | – | 1 | 1 | 1 | 1 | – | – |
| KVKVKVKVpPTKVKVKVK [compound 3218] | 1 | – | – | – | – | 1 | Activity [9]: 1 |
| GVLDTFKDVAIGVAKGAGTGVLKALLCKLDKSC [satpdb13223] | – | – | – | – | – | – | Activity [11]: 0; Activity [2]: 0 |
| ARLKKCFNKVTGYCRKKCKVGERYEIGCLSGKLCCAN [satpdb10509] | – | – | 0 | – | – | 0 | – |
| FLSLIPSLVGGSISAFK [compound 3123] | – | – | – | 1 | 1 | – | Activity [9]: 1 |
| QLGELIQQGGQKIVEKIQKIGQRIRDFFSNLRPRQEA [satpdb13050] | – | – | – | – | – | – | Activity [11]: 0; Activity [2]: 0 |
| HGSTTLRDITV [satpdb28282] | – | 1 | 1 | 1 | 1 | – | – |
| KWKKLLKKPLKLLKKLL [satpdb14017] | – | – | – | – | – | – | Activity [1]: 0; Activity [2]: 0; Activity [3]: 0 |
| KWKLFKKIPLHLAKKF [compound 1139] | 1 | – | – | – | – | 1 | Activity [9]: 1 |
| LGQSAASAHHAYIVLAIENSFMTASKKK [compound 4207] | – | 1 | 1 | 1 | 1 | – | – |
| GSSFLSPEHQLAQQRKESKKPPAKLQPR [satpdb13082] | – | – | – | – | – | – | Activity [11]: 0; Activity [2]: 0 |
| VIFEWTLLQVLSESDQDQSLEVFLT [satpdb18497] | – | 1 | 1 | 1 | 1 | – | – |
| MATAVYRCAKCGKEVELDLATAREVRCPYCGSKILYKPRPRVARRVKAI [4QIW X-ray 3.50 P/W 1-49] | 0 | – | – | – | – | – | Activity [12]: 0 |
| HTHQDFQPVLHLVALNTPLSGGMRGIR [satpdb17795] | – | 1 | 1 | 1 | 1 | – | – |
| VVGSPSAQDEASPL [satpdb16227] | – | 1 | 1 | 1 | 1 | – | – |
| ITPATPFTPAIITEITAAVIA [satpdb10693] | – | – | 0 | – | – | 0 | – |
| VGSGGCMFGNGK [satpdb10083] | – | 1 | 1 | 1 | 1 | – | – |
| KSSAYSLQMGATAIKQVKKLFKKWGW [compound 4448] | – | 1 | 1 | 1 | 1 | – | – |

| Substance | Activity [4] | Activity [5] | Activity [6] | Activity [7] | Activity [8] | Activity [10] | also measured |
| --- | --- | --- | --- | --- | --- | --- | --- |
| GSIPCGESCVFIPCISSVIGCACKSKVCYKN [compound 4374] | – | 1 | 1 | 1 | 1 | – | – |
| rrrrrrrrGEDIIRNIARHAAQVGASMDR [compound 4239] | 1 | – | – | – | – | 1 | Activity [9]: 1 |
| LPRFSTMPFIYCNINEVCHY [satpdb13486] | – | 1 | 1 | 1 | 1 | – | – |
| GFSPNLPGKGLRIS [satpdb13263] | – | – | – | – | – | – | Activity [11]: 0; Activity [2]: 0 |
| GIGGVLLSAGKAALKGLAKVLAEKYAN [compound 4400] | – | 1 | 1 | 1 | 1 | – | – |
| GLLGSIFGAGKKIACALSGLC [satpdb11926] | – | – | – | – | – | 0 | Activity [11]: 0 |
| KWKSFLKTFKSLKkTVLHTLLKAISS [compound 3760] | 1 | – | – | – | – | 1 | Activity [9]: 1 |
| KKWGWLAWVDPAYEFIKGFGKGAIKEGNKDKWKNI [2JPK NMR - A 1-35] | 0 | – | – | – | – | – | Activity [12]: 0 |
| KLCERSSGTWSGVCGNNNACKNQCINLEGARHGSCNYVFPYHRCICYFPC [satpdb11142] | – | – | 0 | – | – | 0 | – |
| GSIPACGESCFKGKCYTPGCSCSKYPLCAKN [2GJ0 NMR - A 1-31] | 0 | 0 | – | – | – | – | – |
| ALWKTLLKKVLKAAAK [satpdb14616] | – | – | – | – | – | – | Activity [1]: 0; Activity [2]: 0; Activity [3]: 0 |
| KWKSFlKTFKSLKKTVLHTLLKAISS [compound 3768] | 1 | – | – | – | – | 1 | Activity [9]: 1 |
| MITDVQLAIFANMLGVSLFLLVVLYHYVAVNNPKKQE [2LAT NMR - A 1-37] | 0 | – | – | – | – | – | Activity [12]: 0 |
| INGSLDKRVQDCYHG [satpdb28376] | – | 1 | 1 | 1 | 1 | – | – |
| DFKLFAVYIKYR [satpdb16901] | – | 1 | 1 | 1 | 1 | – | – |
| MELVKVVFMGWFKNESMFTKEITMMKDDVQWATTQYAEVNKALVKAFIDDKKVCEVDCRG [5HY3 X-ray 3.10,B,1-60] | – | – | – | – | – | – | Activity [12]: 0; Activity [3]: 0 |
| VOLKfPVOLfP [satpdb14846] | – | – | – | – | – | – | Activity [1]: 0; Activity [2]: 0; Activity [3]: 0 |
| TSWSPCSASCGGGHYQRTR [satpdb16504] | – | 1 | 1 | 1 | 1 | – | – |
| FLSSIGKILGNLL [satpdb11843] | – | – | – | – | – | 0 | Activity [11]: 0 |
| ILPLKLPLLPLRR [satpdb14372] | – | – | – | – | – | – | Activity [1]: 0; Activity [2]: 0; Activity [3]: 0 |

| Substance | Activity [4] | Activity [5] | Activity [6] | Activity [7] | Activity [8] | Activity [10] | also measured |
| --- | --- | --- | --- | --- | --- | --- | --- |
| GIINTLQKYYSRVRGGRSAVLSSLPKEEQIGKSSTRGRKSSRRKK [satpdb11018] | – | – | 0 | – | – | 0 | – |
| HHPHGHHPHGHHPHGHHPHG [compound 4189] | – | 1 | 1 | 1 | 1 | – | – |
| RGGRLCYCRRRFCVCVGR [compound 4251] | 1 | – | – | – | – | 1 | Activity [9]: 1 |
| TAWGPCSTTCGLGMATRV [satpdb13892] | – | 1 | 1 | 1 | 1 | – | – |
| KVNANAIKKGGKAIGKGFKVISAASTAHDVYEHIKNRRH [satpdb12894] | – | – | – | – | – | – | Activity [11]: 0; Activity [2]: 0 |
| PAARKAARWAWRMLKKGA [compound 1614] | – | 1 | 1 | 1 | 1 | – | – |
| KWKSFLKTFKSLKkTVLHTLLkAISS [compound 3766] | 1 | – | – | – | – | 1 | Activity [9]: 1 |
| GLFSKFNKKKIKSGLIKIIKTAGKEAGLEALRTGIDVIGCKIKGEC [satpdb11080] | – | – | 0 | – | – | 0 | – |
| GRVPYPRGGLLkLLKklLKKLlKL [compound 3587] | 1 | – | – | – | – | 1 | Activity [9]: 1 |
| QCESGPCCRNCKFLKEGTICKRARGDDMDDYCNGKTCDCPRNPHKGPAT [1RO3 NMR - A 1-49] | 0 | – | – | – | – | – | Activity [12]: 0 |
| WYVKKCLNDVGICKKKCKPEEMHVKNGWAMCGKGRDCCVPAD [satpdb13381] | – | – | – | – | – | – | Activity [11]: 0; Activity [2]: 0 |
| DLWIRETLTSPKSLTG [satpdb21617] | – | 1 | 1 | 1 | 1 | – | – |
| IKLSPETKDNLKKVLKGAIKGAIAVAKMV [satpdb12617] | – | – | – | – | – | – | Activity [1]: 0; Activity [2]: 0; Activity [3]: 0 |
| KILRGVAKKIMRTFLRRILTGKK [compound 3321] | 1 | – | – | – | – | 1 | Activity [9]: 1 |
| KWKLFKKIGIGKFKLAKKF [compound 1206] | 1 | – | – | – | – | 1 | Activity [9]: 1 |
| GMWSKILGHLKR [compound 3637] | 1 | – | – | – | – | 1 | Activity [9]: 1 |
| LVRGCWTKSYPPKPCFVR [satpdb11395] | – | – | – | – | – | 0 | Activity [11]: 0 |
| GPSQPTYPGDDAPVEDLIRFYNDLQQYLNVVTRHRY [1PPT X-ray 1.37 A 1-36] | 0 | – | – | – | – | – | Activity [12]: 0 |
| KLCGETCFKFKCYTPGCSCSYPFCK [compound 4395] | – | 1 | 1 | 1 | 1 | – | – |
